Reference: US20020049173A1, “Alteration of cellular behavior by antisense modulation of mRNA processing” (priority 1999, published 2002)
In the oligonucleotide strings, read from the 5' end, every base follows the letter of its sugar. An asterisk marks phosphorothioate; unmarked linkages are phosphodiester. Other units and linkages are bracketed, terminal groups are in braces. A string of capitals states the bases alone. e = 2'-O-(2-methoxyethyl) (MOE); [5mC] = 5-methylcytosine; d = 2'-deoxy (DNA)

Legend:
[1] = tested on: murine IL-5 receptor α mRNA, membrane form; experiment: Membrane IL-5 receptor α mRNA by Northern blot in BCL1 cells; format: cell-based, mouse; settings: for % INHIB'N MEMBRANE IL-5 RECEPTOR: 10 μM dose, exon-exon boundary oligonucleotides
From the text: (§1) Murine BCL1 cells were chosen for screening antisense oligonucleotides targeted to murine IL-5 receptor α. These are B-cell leukemia cells derived from a spontaneously arising tumor of BALB/c origin, and proliferate in response to murine or human IL-5. This is a CD5+line which resembles a subset of human chronic lymphocytic leukemia tumors and secretes IgM upon lipopolysaccharide stimulation. Cells were obtained from the American Type Culture Collection and cultured in RPMI 1640 medium supplemented with 10% heat-inactivated fetal bovine serum (Sigma Chemical Co., St. Louis, Mo.), 10 mM Hepes, pH 7.2, 50 μM 2-ME, 2 mM L-glutamine, 100 U/ml penicillin and 100 μg/ml streptomycin (Gibco, Grand Island, N.Y.).
(§2) The effect of these compounds on both membrane and soluble forms of murine IL-5 receptor α were measured and are shown in Table 1B. Oligonucleotides were screened in BCL1 cells at a dose of 10 μM and IL-5 receptor α mRNA was measured by Northern blot. Percent inhibition is compared to untreated (no oligo) control.
(§3) Total BCL1 cellular RNA was isolated using the RNeasy™ kit (Qiagen, Santa Clara Calif.) . Northern blotting was performed using standard methods. The cDNA probes were generated from oligonucleotides matching the exon sequences of either exons 2, 8, 9 or 10. Signals were quantitated using a Molecular Dynamics PhosphorImager.

[2] = tested on: murine IL-5 receptor α mRNA, soluble form; experiment: Soluble IL-5 receptor α mRNA by Northern blot in BCL1 cells; format: cell-based, mouse; settings: for % INHIB'N SOLUBLE IL-5 RECEPTOR: 10 μM dose, exon-exon boundary oligonucleotides
From the text: as §1, §2, §3

[3] = tested on: Human IL-5 receptorα membrane form mRNA; experiment: Human IL-5 receptorα membrane form mRNA expression (18 hr); format: cell-based; parameters: % INHIB'N, human IL-5 receptorα membrane form mRNA / % of CONTROL, human IL-5 receptorα membrane form mRNA: concentration or dose not given beside the values; settings: 18 hr
From the text: mRNA transcripts encoding the membrane form of the human IL-5 receptorα contain exons 1-10 and 12-14. Exon 11 is spliced out. It is, therefore, possible to target sequences in exons 1-10 which are common to both soluble and membrane forms of the receptor, or to selectively target sequences only present in the membrane form (exons 12-14). Oligonucleotides were also designed to target various intron/exon boundaries downstream of exon 11, with the intention of preventing successful splicing out of exon 11 and thus redirecting splice products away from the membrane form and in favor of the soluble form of IL-5 receptorα.
(§4) A series of oligonucleotides were designed to target various splice sites or (intron-exon boundaries) in the IL-5 receptor mRNA.

[4] = tested on: Human IL-5 receptorα; experiment: Human IL-5 receptorα protein expression on the cell surface (36 hr), TF-1 cells; format: cell-based; parameters: % INHIB, human IL-5 receptorα protein on the cell surface / % of CONTROL, human IL-5 receptorα protein on the cell surface: concentration or dose not given beside the values; settings: for % of CONTROL, human IL-5 receptorα protein on the cell surface / % INHIB, human IL-5 receptorα protein on the cell surface: 36 hr
From the text: as §4
ISIS 16746, 16748, 16755 and 16758 inhibited human IL-5 receptorα protein by over 50% in this assay and are therefore preferred. ISIS 16758 and 16755 were chosen for further study.

[5] = BCL1 cells, 10 μM, 24 hours, uniform 2′-MOE

Substance	% INHIB'N, human IL-5 receptorα membrane form mRNA [3]	% of CONTROL, human IL-5 receptorα membrane form mRNA [3]	% of CONTROL, human IL-5 receptorα protein on the cell surface [4]	% INHIB, human IL-5 receptorα protein on the cell surface [4]	also measured
ISIS 18002: GCCATTCTACCAAGGACTTC, SEQ ID 2; 2′-MOE gapmer, mouse IL-5R exon 9 (listed as DNA, chemistry not fully specified)	–	–	–	–	% inhibition of membrane IL-5 Rα ([1]; BCL1 cells, 10 μM, Northern blot, compared to untreated control, 2′-MOE gapmers): inhibitor of both forms of IL-5 receptorα
21849 (e[5mC]*eT*eT*eT*e[5mC]*e[5mC]*eT*eT*eT*e[5mC]*e[5mC]*e[5mC]*eA*e[5mC]*eA*eT*eA*eA*eA*eT) [compound 21849]	–	–	–	–	% INHIB'N MEMBRANE IL-5 RECEPTOR [1]: 70%; % INHIB'N SOLUBLE IL-5 RECEPTOR [2]: 5%
21750 (eG*eA*e[5mC]*eT*eT*e[5mC]*e[5mC]*eT*eT*eT*e[5mC]*e[5mC]*eT*eT*eT*e[5mC]*e[5mC]*eT*eG*eG) [compound 21750]	–	–	–	–	% control membrane IL-5 Rα [1, 5]: 8%; % inhib'n membrane IL-5 Rα [1, 5]: 92%; % control soluble IL-5 Rα [2, 5]: 197%
16756 (antisense dG*dA*dA*dC*dA*dC*dT*dT*dA*dC*eA*eT*eT*eT*eT*eA*e[5mC]*eA*eG*eA) [compound 16756]	4%	96%	101%	–	–
21853 (eT*eA*eA*eA*eT*eG*eA*e[5mC]*eA*e[5mC]*e[5mC]*e[5mC]*eA*e[5mC]*eA*eT*eA*eA*eA*eT; antisense) [compound 21853]	–	–	–	–	% INHIB'N MEMBRANE IL-5 RECEPTOR [1]: 14%; % INHIB'N SOLUBLE IL-5 RECEPTOR [2]: 45%
16757 (antisense eG*eA*eA*e[5mC]*eA*dC*dT*dT*dA*dC*dA*dT*dT*dT*dT*eA*e[5mC]*eA*eG*eA) [compound 16757]	9%	91%	81%	19%	–
16749 (antisense eT*e[5mC]*eA*eA*e[5mC]*eA*eT*eT*eA*e[5mC]*e[5mC]*eT*e[5mC]*eA*eT*eA*eG*eT*eT*eA) [compound 16749]	–	101%	75%	25%	–
ISIS 18010: TCAGCATTTACTGGTGTAAA, SEQ ID 37; mismatch of 16758 (antisense eT*e[5mC]*eA*eG*e[5mC]*eA*eT*eT*eT*eA*e[5mC]*eT*eG*eG*eT*eG*eT*eA*eA*eA) [reference compound]	–	–	–	–	inhibition of IL-5 receptorα expression (mismatch controls) ([4]; TF-1 cells): did not inhibit
16755 (antisense eG*eA*eA*e[5mC]*eA*e[5mC]*eT*eT*eA*e[5mC]*eA*eT*eT*eT*eT*eA*e[5mC]*eA*eG*eA) [compound 16755]	84%	15.5%	10.5%	89.5%	–
ISIS 18011: TCAGCAGTTACTTGTGTAAA, SEQ ID 38; 5-mismatch for 16758 (antisense eT*e[5mC]*eA*eG*e[5mC]*eA*eG*eT*eT*eA*e[5mC]*eT*eT*eG*eT*eG*eT*eA*eA*eA) [reference compound]	–	–	–	–	inhibition of IL-5 receptorα expression (mismatch controls) ([4]; TF-1 cells): did not inhibit
16751 (antisense eT*e[5mC]*eA*eA*e[5mC]*dA*dT*dT*dA*dC*dC*dT*dC*dA*dT*eA*eG*eT*eT*eA) [compound 16751]	4%	96%	101%	–	–
ISIS 16746: ACCCAGCTTTCTGCAAAACA, SEQ ID 31; human IL-5R I13/E14; 2′-MOE pattern (bold) not visible (antisense eA*e[5mC]*e[5mC]*e[5mC]*eA*eG*e[5mC]*eT*eT*eT*e[5mC]*eT*eG*e[5mC]*eA*eA*eA*eA*e[5mC]*eA)	over 50%	–	–	over 50%	–
16747 (antisense ACCCAGCTTTCTGCAAAACA; listed as DNA, chemistry not fully specified) [compound 16747]	34%	66%	80.5%	19.5%	–
16754 (antisense eT*eA*eA*eA*eT*dG*dA*dC*dA*dT*dC*dT*dG*dA*dA*eA*eA*e[5mC]*eA*eG) [compound 16754]	–	101%	100.5%	–	–
16750 (antisense dT*dC*dA*dA*dC*dA*dT*dT*dA*dC*e[5mC]*eT*e[5mC]*eA*eT*eA*eG*eT*eT*eA) [compound 16750]	4%	96%	91%	9%	–
16752 (antisense eT*eA*eA*eA*eT*eG*eA*e[5mC]*eA*eT*e[5mC]*eT*eG*eA*eA*eA*eA*e[5mC]*eA*eG) [compound 16752]	–	101%	100.5%	–	–
16753 (antisense dT*dA*dA*dA*dT*dG*dA*dC*dA*dT*e[5mC]*eT*eG*eA*eA*eA*eA*e[5mC]*eA*eG) [compound 16753]	2%	98%	96%	4%	–
ISIS 16748: ACCCAGCTTTCTGCAAAACA, SEQ ID 31; human IL-5R I13/E14; 2′-MOE pattern not visible (antisense eA*e[5mC]*e[5mC]*e[5mC]*eA*dG*dC*dT*dT*dT*dC*dT*dG*dC*dA*eA*eA*eA*e[5mC]*eA)	over 50%	–	–	over 50%	–
16759 (antisense dT*dC*dA*dT*dC*dA*dT*dT*dT*dC*e[5mC]*eT*eG*eG*eT*eG*eG*eA*eA*eA) [compound 16759]	19%	81%	75.5%	24.5%	–
16760 (antisense eT*e[5mC]*eA*eT*e[5mC]*dA*dT*dT*dT*dC*dC*dT*dG*dG*dT*eG*eG*eA*eA*eA) [compound 16760]	24%	76%	71%	29%	–
16746 (antisense eA*e[5mC]*e[5mC]*e[5mC]*eA*eG*e[5mC]*eT*eT*eT*e[5mC]*eT*eG*e[5mC]*eA*eA*eA*eA*e[5mC]*eA) [compound 16746]	64%	36%	35%	65%	–
ISIS 18009: TCATCATTTACTGGTGGAAA, SEQ ID 36; mismatch of 16758 (antisense eT*e[5mC]*eA*eT*e[5mC]*eA*eT*eT*eT*eA*e[5mC]*eT*eG*eG*eT*eG*eG*eA*eA*eA) [reference compound]	–	–	–	–	IC50 ([4]; TF-1 cells, read-out: IC50 for reduction of IL-5 receptorα cell surface protein): 10 µM
16748 (antisense ACCCAGCTTTCTGCAAAACA; listed as DNA, chemistry not fully specified) [compound 16748]	75%	25%	40.5%	59.5%	–
